Reference: ChEMBL document CHEMBL5576047, “Synthesis of a new 2-prenylated quinoline as potential drug for metabolic syndrome with pan-PPAR activity and anti-inflammatory effects” (Bioorg Med Chem Lett, 2024)
pEC50: −log10 of the molar value.

Experiments:
Assay type in all cases: cell-based; call rule not given here
[1] = target: T1, Peroxisome proliferator-activated receptor gamma (Homo sapiens, UniProt P37231); assay: Agonist activity at GAL4-tagged human PPARgamma transfected in African green monkey COS7 cells assessed as transcriptional activation by measuring effective concentration incubated for 24 hrs by luciferase assay; details: for EC50: cos7
T1 sequence (P37231 whole entry): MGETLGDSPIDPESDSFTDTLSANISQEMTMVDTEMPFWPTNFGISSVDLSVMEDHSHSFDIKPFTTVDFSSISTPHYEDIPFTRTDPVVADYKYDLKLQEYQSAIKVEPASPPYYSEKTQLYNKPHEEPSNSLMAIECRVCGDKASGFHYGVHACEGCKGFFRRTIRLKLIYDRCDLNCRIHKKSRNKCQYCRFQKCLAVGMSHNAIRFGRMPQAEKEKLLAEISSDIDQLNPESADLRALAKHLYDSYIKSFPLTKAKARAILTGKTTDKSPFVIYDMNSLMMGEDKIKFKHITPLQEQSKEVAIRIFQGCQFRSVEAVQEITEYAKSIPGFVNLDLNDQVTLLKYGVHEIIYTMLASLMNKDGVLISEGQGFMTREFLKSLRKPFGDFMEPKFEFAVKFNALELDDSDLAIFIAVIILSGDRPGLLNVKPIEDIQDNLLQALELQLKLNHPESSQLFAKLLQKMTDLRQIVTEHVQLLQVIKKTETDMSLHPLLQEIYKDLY

[2] = target: T2, Peroxisome proliferator-activated receptor alpha (Homo sapiens, UniProt Q07869); assay: Agonist activity at GAL4-tagged human PPARalpha transfected in African green monkey COS7 cells assessed as transcriptional activation by measuring effective concentration incubated for 24 hrs by luciferase assay; details: for EC50: cos7; for pEC50: read-out: EC50
T2 sequence (Q07869 whole entry): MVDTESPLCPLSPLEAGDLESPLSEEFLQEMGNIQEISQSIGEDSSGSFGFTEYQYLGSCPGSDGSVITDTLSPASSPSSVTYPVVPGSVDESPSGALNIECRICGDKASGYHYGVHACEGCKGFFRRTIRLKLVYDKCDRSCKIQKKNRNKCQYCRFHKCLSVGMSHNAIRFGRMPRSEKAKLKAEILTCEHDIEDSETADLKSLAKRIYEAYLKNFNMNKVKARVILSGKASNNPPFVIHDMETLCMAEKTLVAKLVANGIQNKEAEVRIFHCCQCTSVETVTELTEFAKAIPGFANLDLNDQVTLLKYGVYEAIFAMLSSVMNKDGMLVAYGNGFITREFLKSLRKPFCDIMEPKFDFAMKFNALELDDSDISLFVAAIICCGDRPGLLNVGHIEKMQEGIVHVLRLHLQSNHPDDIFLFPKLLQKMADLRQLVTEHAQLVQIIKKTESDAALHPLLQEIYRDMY

[3] = target: T3, Peroxisome proliferator-activated receptor delta (Homo sapiens, UniProt Q03181); assay: Agonist activity at GAL4-tagged human PPARbeta/delta transfected in African green monkey COS7 cells assessed as transcriptional activation by measuring effective concentration incubated for 24 hrs by luciferase assay
T3 sequence (Q03181 whole entry): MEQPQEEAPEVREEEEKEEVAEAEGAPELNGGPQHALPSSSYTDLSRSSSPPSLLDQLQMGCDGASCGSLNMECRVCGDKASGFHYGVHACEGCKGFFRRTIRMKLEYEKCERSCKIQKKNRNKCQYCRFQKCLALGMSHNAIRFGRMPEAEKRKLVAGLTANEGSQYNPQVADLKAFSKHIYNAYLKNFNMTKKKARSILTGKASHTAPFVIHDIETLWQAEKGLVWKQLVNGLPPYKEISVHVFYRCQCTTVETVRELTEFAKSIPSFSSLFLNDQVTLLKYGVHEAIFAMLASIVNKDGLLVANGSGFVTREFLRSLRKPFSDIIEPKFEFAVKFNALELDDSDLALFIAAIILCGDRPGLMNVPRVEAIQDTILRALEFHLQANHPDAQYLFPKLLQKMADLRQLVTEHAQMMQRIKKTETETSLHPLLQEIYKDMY

EC50 [1] | EC50 [2] | pEC50 [2] | Structure (SMILES) | also measured
– | Not Active | – | Cc1cc(SCc2sc(-c3ccc(C(F)(F)F)cc3)nc2C)ccc1OCC(=O)O [GW501516] | –
Not Active | – | – | Cc1cccc(Nc2cc(Cl)nc(SCC(=O)O)n2)c1C [PIRINIXIC ACID] | –

The remaining lines, values behind:

Structure (SMILES) | EC50 [1] | EC50 [2] | pEC50 [2] | also measured
CCOC(=O)/C(=C/CCC1(C)CCc2cc(OCc3ccccc3)ccc2O1)OCC(F)(F)F (centres undefined) | Not Active | Not Active | – | –
CCOC(=O)CC/C(C)=C/CCC1(C)CCc2cc(OCc3ccccc3)ccc2O1 (centres undefined) | – | – | 5.53 | pEC50 ([1]; read-out: EC50): 5.80
CCOC(=O)CC/C(C)=C/CCc1ccc2cc(OCc3ccccc3)ccc2n1 | – | – | 5.49 | pEC50 [3]: 5.82
CN(CCOc1ccc(CC2SC(=O)NC2=O)cc1)c1ccccn1 (centres undefined) [ROSIGLITAZONE] | – | Not Active | – | –
